Measured values taken from ChEMBL document CHEMBL6092197, “Novel benzenesulfonamide-aroylhydrazone conjugates as carbonic anhydrase inhibitors that induce MAPK/ERK-mediated cell cycle arrest and mitochondrial-associated apoptosis in MCF-7 breast cancer cells” (Bioorg Med Chem, 2024).

Key:
MCF7 [1] = assay: cells; details: Homo sapiens, MCF7, 72 h
Description: Antiproliferative activity against human MCF7 cells assessed as reduction in cell proliferation incubated for 72 hrs by MTT assay

HeLa = assay: cells; details: Homo sapiens, 72 h
Description: Antiproliferative activity against human HeLa cells assessed as reduction in cell proliferation incubated for 72 hrs by MTT assay

HCT-116 = assay: cells; details: Homo sapiens, HCT-116, 72 h
Description: Antiproliferative activity against human HCT-116 cells assessed as reduction in cell proliferation incubated for 72 hrs by MTT assay

MCF7 [2] = assay: Effect on apoptosis in human MCF7 cells assessed as fold decrease in apoptotic cells at 10 uM preincubated with U0126 for 1 hrs followed by compound addition and measured after 72 hrs by Annexin V-PE/7-AAD staining based flow cytometric analysis; type: functional
Carbonic anhydrase 2 = Carbonic anhydrase 2 (Homo sapiens, UniProt P00918); assay: Inhibition of human carbonic anhydrase II assessed as inhibition constant incubated for 15 mins by stopped flow CO2-hydrase assay
MCF7 [3] = assay: Induction of apoptosis in human MCF7 cells assessed as total apoptotic cells at 10 uM incubated for 72 hrs by Annexin V-PE/7-AAD staining based flow cytometric analysis relative to control; type: functional
MCF7 [4] = assay: Inhibition of colony formation in human MCF7 cells assessed as reduction in colony formation at 5 uM preincubated with compound for 24 hrs followed by replacement with DMEM medium and measured after 2 weeks by crystal violet staining based analysis relative to control; type: functional
MCF7 [5] = assay: Antiproliferative activity against human MCF7 cells assessed as reduction in cell proliferation incubated for 48 hrs by MTT assay; type: functional, cell-based; details: MCF7, 48 h
MCF7 [6] = assay: Induction of apoptosis in human MCF7 cells assessed as increase in caspase activity at 10 uM preincubated for 48 hrs followed by carboxyfluorescein-labeled fluoro-methyl ketone peptide addition and measured after 1 hrs by fluorescence based analysis relative to control; type: functional
[7] = Selectivity index, ratio of IC50 for human HaCaT cells to IC50 for human HeLa cells; type: toxicity; details: HaCaT cells versus HeLa cells, read-out: Ratio IC50
Carbonic anhydrase 12 = Carbonic anhydrase 12 (Homo sapiens, UniProt O43570); assay: Inhibition of human carbonic anhydrase XII assessed as inhibition constant incubated for 15 mins by stopped flow CO2-hydrase assay
MCF7 [8] = assay: Inhibition of colony formation in human MCF7 cells assessed as reduction in colony formation at […] preincubated with compound for 24 hrs followed by replacement with DMEM medium and measured after 2 weeks by crystal violet staining based analysis relative to control; type: functional; details: dose 2.5 µM
[9] = Selectivity index, ratio of IC50 for human HaCaT cells to IC50 for human MCF7 cells; type: toxicity; details: HaCaT cells versus MCF7 cells, read-out: Ratio IC50
Carbonic anhydrase 1 = Carbonic anhydrase 1 (Homo sapiens, UniProt P00915); assay: Inhibition of human carbonic anhydrase I assessed as inhibition constant incubated for 15 mins by stopped flow CO2-hydrase assay
Carbonic anhydrase 9 = Carbonic anhydrase 9 (Homo sapiens, UniProt Q16790); assay: Inhibition of human carbonic anhydrase IX assessed as inhibition constant incubated for 15 mins by stopped flow CO2-hydrase assay
MCF7 [10] = assay: Antiproliferative activity against human MCF7 cells assessed as reduction in cell proliferation incubated for 24 hrs by MTT assay; type: functional, cell-based; details: MCF7, 24 h
in vitro = details: human, HaCaT cells
Description: Cytotoxicity against human HaCaT cells assessed as reduction in cell proliferation incubated for 72 hrs by MTT assay

[11] = Selectivity index, ratio of IC50 for human HaCaT cells to IC50 for human HCT-116 cells; type: toxicity; details: HaCaT cells versus HCT-116 cells, read-out: Ratio IC50

Sequence of Carbonic anhydrase 1 (P00915 whole entry): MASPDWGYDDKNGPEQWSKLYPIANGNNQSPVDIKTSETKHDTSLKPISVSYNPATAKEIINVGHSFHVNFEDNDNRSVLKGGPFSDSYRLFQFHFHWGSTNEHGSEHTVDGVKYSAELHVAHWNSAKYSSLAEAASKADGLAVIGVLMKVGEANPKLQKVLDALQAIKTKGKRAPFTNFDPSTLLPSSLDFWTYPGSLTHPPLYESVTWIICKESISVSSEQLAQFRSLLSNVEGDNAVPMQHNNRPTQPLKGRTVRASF
Sequence of Carbonic anhydrase 12 (O43570 whole entry): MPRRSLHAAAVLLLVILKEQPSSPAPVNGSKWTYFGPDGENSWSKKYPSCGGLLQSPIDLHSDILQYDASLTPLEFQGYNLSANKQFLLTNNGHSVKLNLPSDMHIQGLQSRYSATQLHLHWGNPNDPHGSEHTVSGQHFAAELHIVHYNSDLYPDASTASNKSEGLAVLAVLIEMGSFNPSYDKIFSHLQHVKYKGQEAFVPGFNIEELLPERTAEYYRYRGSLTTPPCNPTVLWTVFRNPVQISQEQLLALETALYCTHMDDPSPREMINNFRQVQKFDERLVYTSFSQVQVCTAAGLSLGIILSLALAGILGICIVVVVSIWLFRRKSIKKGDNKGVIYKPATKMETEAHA

| IC50 (MCF7 [1]) | IC50 (HeLa) | IC50 (HCT-116) | Ki (Carbonic anhydrase 2) | IC50 (MCF7 [5]) | Ki (Carbonic anhydrase 12) | Ki (Carbonic anhydrase 1) | Ki (Carbonic anhydrase 9) | IC50 (MCF7 [10]) | IC50 at 72 h (in vitro) | SMILES | fold change (FC) (MCF7 [2]) | Activity (MCF7 [3]) | inhibition at 5 µM (MCF7 [4]) | Activity (MCF7 [6]) | selectivity ratio [7] | inhibition at […] (MCF7 [8]) | selectivity ratio [9] | selectivity ratio [11] |
| --- | --- | --- | --- | --- | --- | --- | --- | --- | --- | --- | --- | --- | --- | --- | --- | --- | --- | --- |
| 105 µM | 350 µM | 155 µM |  |  |  |  |  |  |  | NNC(=O)c1cc(S(N)(=O)=O)c(Cl)cc1SCc1ccccc1 |  |  |  |  |  |  |  |  |
| 4 µM | 16 µM |  | 0.0411 µM | 6 µM | 0.0822 µM | 0.328 µM | 0.0857 µM | 98 µM |  | NS(=O)(=O)c1cc(C(=O)N/N=C/c2ccc(Br)cc2O)c(SCc2ccccc2)cc1Cl | 2 | 65% | 85% | 30% | 2 | 80% | 8.2 |  |
| 6 µM | 18 µM | 6 µM | 0.646 µM | 6 µM | 0.695 µM | 0.537 µM | 0.852 µM | 90 µM | 33 µM | NS(=O)(=O)c1cc(C(=O)N/N=C/c2ccc(Br)cc2O)c(SCc2ccc(F)cc2)cc1Cl | 2.2 | 60% | 80% | 30% | 1.8 | 65% | 5.5 | 5.5 |
| 24 µM | 36 µM | 18 µM |  |  |  |  |  |  | 65 µM | NNC(=O)c1cc(S(N)(=O)=O)c(Cl)cc1SCc1ccc(F)cc1 |  |  |  |  | 1.8 |  | 2.7 | 3.6 |
| 22 µM | 29 µM | 14 µM | 0.0491 µM |  | 0.0568 µM | 0.144 µM | 0.0581 µM |  | 58 µM | NS(=O)(=O)c1cc(C(=O)N/N=C/c2ccc(O)cc2O)c(SCc2ccccc2)cc1Cl |  |  |  |  | 2 |  | 2.6 | 4.1 |
| 25 µM | 28 µM | 11.5 µM | 0.0561 µM |  | 0.0803 µM | 0.0807 µM | 0.0801 µM |  | 32 µM | NS(=O)(=O)c1cc(C(=O)N/N=C/c2ccc(O)cc2O)c(SCc2ccc(F)cc2)cc1Cl |  |  |  |  | 1.1 |  | 1.2 | 2.9 |
